Laboratory results reported in patent US20260271987A1, “AEROSOL PRECURSOR COMPOSITION COMPRISING MONOMENTHYL ESTER” (RAI STRATEGIC HOLDINGS, INC., priority 2023, published 2026).

Assay: Thermal analysis (flash pyrolysis and thermogravimetric analysis) of neat menthyl monosuccinate
Assay type: physicochemical
Details: for Compounds volatilized by FP and TGA, Area %: neat menthyl monosuccinate sample, FP in helium, Teq=340° C., 40 seconds, GC/MS, TGA 30 to 340° C. at 20 degrees per minute
Experimental: Flash pyrolysis (FP) and thermogravimetric analysis (TGA) were conducted on a sample of menthyl monosuccinate.
For the FP, a pyroprobe Model 5200 (CDS Analytical, CDS, Oxford, PA 19363, USA) pyrolyzer was used. Heating was performed in helium in flash mode with Teq=340° C. using approximately 0.5 mg of neat monomenthyl succinate. Heating was performed for 40 seconds. GC/MS analysis was performed with separation on a DB-1701 column. For the TG, a Discovery TA 5500 (TA Instruments, New Castle, DE, USA) was used. The temperature range was 30 to 340° C. at a ramp rate of 20 degrees per minute. Neat monomenthyl succinate (2-3 mg) and silica (about 1.5 mg, containing 5% naphthalene) was used as an internal standard.

| major decomposition product formed from menthyl monosuccinate (FP and TGA, up to 340° C.) | SMILES | portion of the menthyl monosuccinate volatilized without decomposition (FP and TGA, up to 340° C.) | Compounds volatilized by FP and TGA, Area % |
| --- | --- | --- | --- |
| – | CC(C)[C@@H]1CC[C@@H](C)C[C@H]1OC(=O)CCC(=O)O [Menthyl monosuccinate] | 70% | 70% |
| 16.5% | CC(C)[C@@H]1CC[C@@H](C)C[C@H]1O [Menthol, (1R,2S,5R)-5-Methyl-2-(propan-2-yl)cyclohexan-1-ol] | – | 16.5% |
